# Results reported in the NIST ThermoML archive (doi:10.1021/je700384e).
# ± gives the expanded uncertainty stated by the source.
# Details: Crystal; DTA
row,SMILES,Triple point temperature [K]
1,"CC(F)F [1,1-difluoroethane]",154.3 ± 0.5
2,O=C=O [carbon dioxide],216.56 ± 0.5
3,[N-]=[N+]=O [nitrous oxide],181.99 ± 0.5
